Reference: PubChem BioAssay (NCI)
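Assay format: 96-well plates, 48-hour exposure. TGI denotes the concentration required for complete inhibition of growth.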

Legend:
Test in all cases: NCI tumour cell line growth inhibition, 48 h
DLD-1 colon = tested on: DLD-1 colon
EKVX NSCLC = tested on: EKVX NSCLC
HCT-116 colon = tested on: HCT-116 colon
HCT-15 colon = tested on: HCT-15 colon
KM12 colon = tested on: KM12 colon
MOLT-4 leukemia = tested on: MOLT-4 leukemia
NCI-H226 lung = tested on: NCI-H226 lung
NCI-H522 lung = tested on: NCI-H522 lung
OVCAR-5 ovarian = tested on: OVCAR-5 ovarian
P388/ADR leukemia = tested on: P388/ADR leukemia
RPMI-8226 leukemia = tested on: RPMI-8226 leukemia
SNB-75 CNS = tested on: SNB-75 CNS
UACC-257 melanoma = tested on: UACC-257 melanoma
XF 498 CNS = tested on: XF 498 CNS
ACHN renal = tested on: ACHN renal
DU-145 prostate = tested on: DU-145 prostate
MDA-MB-231 breast = tested on: MDA-MB-231 breast
MDA-MB-435 = tested on: MDA-MB-435
TK-10 renal = tested on: TK-10 renal
SR leukemia = tested on: SR leukemia

| SMILES | TGI (DLD-1 colon) | TGI (EKVX NSCLC) | TGI (HCT-116 colon) | TGI (HCT-15 colon) | TGI (KM12 colon) | TGI (MOLT-4 leukemia) | TGI (NCI-H226 lung) | TGI (NCI-H522 lung) | TGI (OVCAR-5 ovarian) | TGI (P388/ADR leukemia) | TGI (RPMI-8226 leukemia) | TGI (SNB-75 CNS) | TGI (UACC-257 melanoma) | TGI (XF 498 CNS) | TGI (ACHN renal) | TGI (DU-145 prostate) | TGI (MDA-MB-231 breast) | TGI (MDA-MB-435) | TGI (TK-10 renal) | TGI (SR leukemia) |
| --- | --- | --- | --- | --- | --- | --- | --- | --- | --- | --- | --- | --- | --- | --- | --- | --- | --- | --- | --- | --- |
| CN(C)C(=O)OCOC(=O)N(C)C | > 100 µM | > 100 µM | > 100 µM | > 100 µM | > 100 µM | > 100 µM | > 100 µM | > 100 µM | > 100 µM | > 100 µM | > 100 µM | > 100 µM | > 100 µM | > 100 µM | – | – | – | – | – | – |
| CCOC(=O)c1csc(NC(=O)C(C)N2CCCCC2)n1 (stereo unspecified) | – | > 100 µM | – | > 100 µM | > 100 µM | > 100 µM | – | – | > 100 µM | – | > 100 µM | > 100 µM | > 100 µM | – | > 100 µM | > 100 µM | > 100 µM | > 100 µM | > 100 µM | – |
| OCC1OC(n2cnc3c2NC=NC[C@H]3O)C(O)C1O (stereo partly specified) | > 450 µM | > 450 µM | > 450 µM | > 450 µM | > 450 µM | > 450 µM | > 273 µM | > 450 µM | > 450 µM | > 450 µM | > 450 µM | > 450 µM | > 450 µM | > 450 µM | – | – | – | – | – | – |
| COC(=O)C1OC(Oc2cc(O)c3c(=O)cc(-c4ccc(O)cc4)oc3c2)C(O)C(O)C1O (stereo unspecified) | > 100 µM | > 100 µM | > 100 µM | > 100 µM | > 100 µM | > 100 µM | > 100 µM | > 100 µM | > 100 µM | > 100 µM | > 100 µM | > 100 µM | > 100 µM | > 100 µM | – | – | – | – | – | – |
| O=C1NC(=O)C(CCO)(c2ccccc2)C(=O)N1 | > 100 µM | > 100 µM | > 100 µM | > 100 µM | > 100 µM | > 100 µM | > 100 µM | > 100 µM | > 100 µM | – | – | > 100 µM | > 100 µM | > 100 µM | – | – | – | – | – | – |
| CCOC(=O)CC1CCN(C(=O)c2ccccc2)C2Cc3c([nH]c4ccccc34)C12C[N+](=O)[O-] (stereo unspecified) | – | > 100 µM | – | > 100 µM | > 100 µM | > 100 µM | > 100 µM | > 100 µM | > 100 µM | – | – | > 100 µM | > 100 µM | – | > 100 µM | > 100 µM | > 100 µM | > 100 µM | > 100 µM | > 100 µM |
| COC(=O)c1ccc(/C=C2\N=C(C)OC2=O)cc1 | > 100 µM | > 100 µM | > 100 µM | > 100 µM | > 100 µM | > 100 µM | > 100 µM | > 100 µM | > 100 µM | – | > 100 µM | > 100 µM | – | > 100 µM | > 100 µM | – | – | – | > 100 µM | – |
| O=c1c(-c2ccccc2)c(SCCCN2CCN(c3cccc(Cl)c3)CC2)n(-c2ccccc2)c(=S)n1-c1ccccc1 | – | > 100 µM | – | > 100 µM | > 100 µM | > 100 µM | > 100 µM | > 100 µM | > 100 µM | – | > 100 µM | > 100 µM | > 100 µM | – | > 100 µM | > 100 µM | > 100 µM | 42.4 µM | > 100 µM | > 100 µM |
| CCCCN1C=CN2c3nc4cc(C)c(C)cc4n3C(C(=O)OC)=C(C(=O)OC)C12 (stereo unspecified) | > 100 µM | > 100 µM | > 100 µM | > 100 µM | – | > 100 µM | – | > 100 µM | > 100 µM | – | > 100 µM | > 100 µM | > 100 µM | > 100 µM | > 100 µM | – | – | – | > 100 µM | > 100 µM |
